From publication PMC11352859, “Functionalized Congeners of 2H-Chromene P2Y6 Receptor Antagonists” (Cells, 2024)
Several values for one entry are separate records, joined by “and”; a condition that tells them apart may be missing. Equal entries are not always repeated. Where two headings read alike, the source gives them in different places.

Assays:
rP2Y6 = conditions: Figure 1; ref [33]; cited from earlier work
[1] = tested on: 45 target sites (receptors, channels, and transporters); assay: PDSP off-target binding screen at 45 target sites; set-up: species or system human; conditions: PDSP binding assays
Excerpt: (§1) Table S2. Off-target screening (to replace table later). We thank Dr. Bryan L. Roth (Univ. North Carolina at Chapel Hill) and National Institute of Mental Health's Psychoactive Drug Screening Program (Contract # HHSN-271-2008-00025-C) for screening data. Reference: Besnard et al.
(§2) Procedures: https://pdsp.unc.edu/pdspweb/content/UNC-CH%20Protocol%20Book.pdf […]
(§3) nucleosides were found at the following sites (human unless noted): 5HT1A, 5HT1B, 5HT1D, […]
(§4) β3, BZP rat brain site, D1, D2, D3, D4, D5, GABAA, H1, H2, H3, H4, M1, M2, M5, δ-opioid receptor (DOR), κ-opioid receptor (KOR), μ-opioid receptor (MOR), σ1, σ2, DAT, NET, SERT. Ki values […]
(§5) Compound # PDSP # Receptor LogKi Ki (nM)

HeLa cells = assay: MTT cell viability assay, HeLa cells; format: cell-based, human; conditions: for % survival: 12 h, MTT
Method: (§6) The 1321N1 astrocytoma (hP2Y6R-overexpressing) and HeLa (non-transfected) cell lines were cultured in Dulbecco’s modified Eagle’s medium (DMEM, HyClone, Logan, UT, USA) supplemented with 5% heat-inactivated fetal bovine serum (FBS, HyClone, UT, USA), 100 U/mL penicillin, and 100 µg/mL streptomycin in 5% CO2 at 37 °C. The cell viability was determined using an MTT kit (Sigma, St. Louis, MO, USA) according to the manufacturer’s instructions. Briefly, 1 × 10^4 cells were seeded in triplicate in 96-well plates. The hP2Y6R-astrocytoma and HeLa cells were treated with a P2Y6R agonist and antagonists at a range of concentrations and incubated for 12 h. The cell viability was measured at 490 nm using a SpectraMax-M5 Spectrometer (Molecular Devices, San Jose, CA, USA).

[2] = tested on: hP2Y6R-1321N1 human astrocytoma cells; assay: MTT cell viability assay, hP2Y6R-1321N1 astrocytoma cells; format: cell-based; conditions: for % survival: P2Y6R-astrocytoma, 12 h, MTT
Method: as §6

mP2Y6 = tested on: mP2Y6; set-up: method as in PMID 37078976; conditions: Figure 1; ref [33]; cited from earlier work
hP2Y6R = biological target: T1, hP2Y6R (Homo sapiens, UniProt Q15077); assay: UDP (100 nM)-induced Ca2+ mobilization in hP2Y6R stably transfected 1321N1 astrocytoma cells; format: cell-based; conditions: UDP 100 nM; 3–4 independent triplicate determinations; read-out: IC50, hP2Y6R (Mean ± SEM)
T1 construct: expressed in transfected cells
Method: To screen for P2Y6R antagonist activity, PLC-mediated calcium mobilization assays were carried out using the recombinant human P2Y6R stably expressed in 1321N1 astrocytoma cells (hP2Y6R-1321N1) according to the previously published method. Briefly, the hP2Y6R-1321N1 cells were seeded on 96-well black plates and incubated overnight. The antagonists were pretreated along with the FLIPR dye (Calcium 6 assay kit, Molecular Devices, San Jose, CA, USA) containing 5 mM probenecid for 45 min, prior to agonist addition followed by an immediate intracellular Ca^2+ measurement. […] Here, probenecid was used as an organic anion transporter inhibitor to prevent the efflux of the dye into the extracellular environment. During incubation, the membrane permeable dye enters the cytoplasm and cleaves the acetoxymethyl protection to enable Ca^2+ binding. When the P2Y6R was activated by UDP, the increased calcium concentration was directly measured by intracellular changes in the fluorescence intensity with a Fluorescent Imaging Plate Reader (FLIPR^TETRA, Molecular Devices, San Jose, CA, USA).

α2A [3] = biological target: T2, α2A (Homo sapiens, UniProt P08913); set-up: method as in Jung et al., 2021 and 2022 [30],[40]; conditions: PDSP; ref Jung et al., 2021 and 2022 [30],[40]; cited from earlier work
T2 construct: NIMH Psychoactive Drug Screening Program (PDSP)
T2 sequence (P08913 1-465): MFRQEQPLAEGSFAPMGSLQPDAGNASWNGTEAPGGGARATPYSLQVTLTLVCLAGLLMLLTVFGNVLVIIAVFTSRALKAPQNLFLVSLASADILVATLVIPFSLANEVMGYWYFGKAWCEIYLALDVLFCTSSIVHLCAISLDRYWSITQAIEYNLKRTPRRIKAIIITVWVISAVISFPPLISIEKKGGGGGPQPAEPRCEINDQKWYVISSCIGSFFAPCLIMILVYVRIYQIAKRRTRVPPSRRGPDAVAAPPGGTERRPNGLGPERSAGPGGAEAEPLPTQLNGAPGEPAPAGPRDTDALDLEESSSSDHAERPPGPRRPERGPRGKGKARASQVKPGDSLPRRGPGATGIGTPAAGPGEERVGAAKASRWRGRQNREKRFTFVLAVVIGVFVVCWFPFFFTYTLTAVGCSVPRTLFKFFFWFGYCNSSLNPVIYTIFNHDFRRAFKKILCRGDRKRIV

other P2YRs = conditions: at high µM concentrations; ref [29],[43]; cited from earlier work
α2C = biological target: α2C; set-up: method as in Jung et al., 2021 and 2022 [30],[40]; conditions: PDSP; ref Jung et al., 2021 and 2022 [30],[40]; cited from earlier work
µ-opioid receptor (MOR) = biological target: µ-opioid receptor (MOR); set-up: method as in Jung et al., 2021 and 2022 [30],[40]; conditions: PDSP; ref Jung et al., 2021 and 2022 [30],[40]; cited from earlier work
hP2Y14R = biological target: T3, hP2Y14R (Homo sapiens, UniProt Q15391); assay: whole-cell binding of fluorescent antagonist MRS4174 in CHO-hP2Y14R cells (flow cytometry)
T3 construct: expressed in transfected cells
T3 sequence (Q15391 1-338): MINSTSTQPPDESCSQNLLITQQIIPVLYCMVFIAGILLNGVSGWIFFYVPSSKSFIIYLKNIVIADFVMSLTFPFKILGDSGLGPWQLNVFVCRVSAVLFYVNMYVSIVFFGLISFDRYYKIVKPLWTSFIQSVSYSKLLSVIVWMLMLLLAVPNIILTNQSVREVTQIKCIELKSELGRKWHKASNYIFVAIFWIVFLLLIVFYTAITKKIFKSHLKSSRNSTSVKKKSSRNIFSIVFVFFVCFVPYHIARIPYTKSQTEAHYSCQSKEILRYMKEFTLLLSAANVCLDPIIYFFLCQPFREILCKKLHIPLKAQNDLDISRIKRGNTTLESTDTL

α2A [4] = biological target: T2, α2A; assay: PDSP binding assay, α2A
Excerpt: as §1, §2, §3, §4, §5

α2B = biological target: T4, α2B (Homo sapiens, UniProt P18089); assay: PDSP binding assay, α2B; conditions: mean, n = 2
T4 construct: NIMH Psychoactive Drug Screening Program (PDSP)
T4 sequence (P18089 1-450): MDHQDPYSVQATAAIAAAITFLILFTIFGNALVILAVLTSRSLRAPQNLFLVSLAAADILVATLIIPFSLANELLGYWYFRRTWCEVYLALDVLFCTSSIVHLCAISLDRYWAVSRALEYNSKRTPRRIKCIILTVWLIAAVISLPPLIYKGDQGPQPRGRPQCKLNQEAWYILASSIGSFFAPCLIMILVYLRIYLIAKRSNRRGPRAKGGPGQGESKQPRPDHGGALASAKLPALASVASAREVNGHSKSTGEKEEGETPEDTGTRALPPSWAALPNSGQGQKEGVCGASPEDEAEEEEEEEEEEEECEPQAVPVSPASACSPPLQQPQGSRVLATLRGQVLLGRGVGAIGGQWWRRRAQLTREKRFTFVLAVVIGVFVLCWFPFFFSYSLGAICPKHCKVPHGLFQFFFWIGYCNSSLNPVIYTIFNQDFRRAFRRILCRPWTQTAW
Excerpt: as §1, §2, §3, §4, §5

D1 = biological target: T5, D1 (Homo sapiens, UniProt P21728); assay: PDSP binding assay, D1
T5 construct: NIMH Psychoactive Drug Screening Program (PDSP)
Excerpt: as §1, §2, §3, §4, §5

D5 = biological target: T6, D5 (Homo sapiens, UniProt P21918); assay: PDSP binding assay, D5
T6 construct: NIMH Psychoactive Drug Screening Program (PDSP)
Excerpt: as §1, §2, §3, §4, §5

H1 = biological target: T7, H1 (Homo sapiens, UniProt P35367); assay: PDSP binding assay, H1
T7 construct: NIMH Psychoactive Drug Screening Program (PDSP)
Excerpt: as §1, §2, §3, §4, §5

5-HT1D = biological target: T8, 5-HT1D (Homo sapiens, UniProt P28221); assay: PDSP binding assay, 5-HT1D
T8 construct: NIMH Psychoactive Drug Screening Program (PDSP)
Excerpt: as §1, §2, §3, §4, §5

P2Y6R = P2Y6R agonist; no reference given; read-out: EC50 in PLC activation; cited from earlier work

T6 sequence (P21918 whole entry): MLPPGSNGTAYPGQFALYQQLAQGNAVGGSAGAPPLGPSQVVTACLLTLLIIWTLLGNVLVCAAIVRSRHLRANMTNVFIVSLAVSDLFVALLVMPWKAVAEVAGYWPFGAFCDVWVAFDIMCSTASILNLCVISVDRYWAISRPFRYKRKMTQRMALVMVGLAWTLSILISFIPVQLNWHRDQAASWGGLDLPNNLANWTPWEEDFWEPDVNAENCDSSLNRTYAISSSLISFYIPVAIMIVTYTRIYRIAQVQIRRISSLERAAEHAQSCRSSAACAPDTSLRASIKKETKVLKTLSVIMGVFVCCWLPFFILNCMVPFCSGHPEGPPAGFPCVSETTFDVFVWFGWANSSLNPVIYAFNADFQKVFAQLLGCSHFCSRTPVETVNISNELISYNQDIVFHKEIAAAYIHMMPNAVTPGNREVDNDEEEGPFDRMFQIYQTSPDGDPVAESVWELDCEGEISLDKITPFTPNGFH
T7 sequence (P35367 whole entry): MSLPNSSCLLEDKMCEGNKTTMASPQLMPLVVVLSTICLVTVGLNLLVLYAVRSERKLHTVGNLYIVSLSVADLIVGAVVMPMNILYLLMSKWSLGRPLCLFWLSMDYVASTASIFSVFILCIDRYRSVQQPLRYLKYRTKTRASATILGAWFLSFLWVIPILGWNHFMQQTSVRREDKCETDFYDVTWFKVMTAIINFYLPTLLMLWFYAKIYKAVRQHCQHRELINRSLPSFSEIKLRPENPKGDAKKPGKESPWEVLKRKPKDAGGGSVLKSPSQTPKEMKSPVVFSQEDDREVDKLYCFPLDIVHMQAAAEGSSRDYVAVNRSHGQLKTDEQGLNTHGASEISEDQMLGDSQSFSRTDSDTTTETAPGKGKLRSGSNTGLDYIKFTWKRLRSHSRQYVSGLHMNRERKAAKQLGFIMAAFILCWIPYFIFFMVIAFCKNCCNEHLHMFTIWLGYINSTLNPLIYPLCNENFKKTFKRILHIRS
T8 sequence (P28221 whole entry): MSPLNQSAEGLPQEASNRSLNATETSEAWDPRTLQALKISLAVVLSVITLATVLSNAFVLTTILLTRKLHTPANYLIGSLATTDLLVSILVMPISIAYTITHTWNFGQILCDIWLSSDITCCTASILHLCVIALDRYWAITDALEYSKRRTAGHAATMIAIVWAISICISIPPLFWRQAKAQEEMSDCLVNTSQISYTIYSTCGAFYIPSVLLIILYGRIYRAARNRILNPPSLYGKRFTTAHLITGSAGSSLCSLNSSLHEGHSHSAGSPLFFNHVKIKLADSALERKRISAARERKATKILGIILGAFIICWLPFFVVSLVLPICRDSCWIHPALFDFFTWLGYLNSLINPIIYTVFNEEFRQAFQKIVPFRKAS
T1 sequence (Q15077 whole entry): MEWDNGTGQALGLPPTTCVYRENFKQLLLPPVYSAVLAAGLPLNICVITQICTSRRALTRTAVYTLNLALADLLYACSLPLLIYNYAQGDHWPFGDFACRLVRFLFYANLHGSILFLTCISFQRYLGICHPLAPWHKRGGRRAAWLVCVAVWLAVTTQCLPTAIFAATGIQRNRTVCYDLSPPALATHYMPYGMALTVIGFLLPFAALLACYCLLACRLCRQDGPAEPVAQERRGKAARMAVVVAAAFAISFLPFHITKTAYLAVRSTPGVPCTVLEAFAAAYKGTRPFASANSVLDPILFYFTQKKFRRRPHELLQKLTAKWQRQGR
T5 sequence (P21728 whole entry): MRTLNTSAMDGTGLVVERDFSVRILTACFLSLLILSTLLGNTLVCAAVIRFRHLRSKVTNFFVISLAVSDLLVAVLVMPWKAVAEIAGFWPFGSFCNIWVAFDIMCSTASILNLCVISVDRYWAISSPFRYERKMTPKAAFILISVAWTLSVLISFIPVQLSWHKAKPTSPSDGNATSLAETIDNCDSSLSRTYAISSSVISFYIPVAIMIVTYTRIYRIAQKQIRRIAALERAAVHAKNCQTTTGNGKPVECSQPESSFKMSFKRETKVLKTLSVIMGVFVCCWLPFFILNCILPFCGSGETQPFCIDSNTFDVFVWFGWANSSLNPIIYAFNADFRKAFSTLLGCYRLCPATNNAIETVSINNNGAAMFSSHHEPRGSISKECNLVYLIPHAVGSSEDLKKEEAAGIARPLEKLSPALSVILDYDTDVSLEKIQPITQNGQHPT

For `S=C=Nc1cccc(NC(=S)NCCCCNC(=S)Nc2cccc(N=C=S)c2)c1` [Compound 1], the IC50 (rP2Y6) is listed as 0.098 µM.
For `O=[N+]([O-])C1=Cc2cc(F)cc(F)c2OC1C(F)(F)F` (centres unmarked) [Compound 2b], the “off-target interactions at 45 target sites” value [1] was “no off-target interactions and none”, the “% survival” value (HeLa cells; 0.1 µM) was 87% and the “% survival” value (HeLa cells; 0.5 µM) was 86%. The “% survival” value (HeLa cells; 1 µM) was 87%, the “% survival” value (HeLa cells; 5 µM) was 84% and the “% survival” value (HeLa cells; 10 µM) was 78%. The inhibition of viability (HeLa cells; at 10 µM, 12 h exposure) was 22%, the “% survival” value ([2]; 0.1 µM) was 104% and the “% survival” value ([2]; 0.5 µM) was 104%. The “% survival” value ([2]; 1 µM) was 105%, the “% survival” value ([2]; 5 µM) was 98% and the “% survival” value ([2]; 10 µM) was 88%. The inhibition of viability ([2]; hP2Y6R-1321N1 cells, at 10 µM, 12 h exposure) was 12% and the IC50 (mP2Y6) was 17.8 µM.
For `CC[Si](C#Cc1ccc2c(c1)C=C([N+](=O)[O-])C(C(F)(F)F)O2)(CC)CC` (centres unmarked) [Compound 13], the IC50 (hP2Y6R) is listed as 0.604 ± 0.239 µM, the Ki (α2A [3]) is listed as 2 µM and the “inhibition at most other P2YRs” value (other P2YRs) is listed as “minor”.
For `O=C(O)c1ccc(C#Cc2ccc3c(c2)C=C([N+](=O)[O-])C(C(F)(F)F)O3)cc1` (centres unmarked) [Compound 17], the Ki (α2C) is listed as 2.6 µM, the Ki (µ-opioid receptor (MOR)) is listed as 4.2 µM and the “inhibition at most other P2YRs” value (other P2YRs) is listed as “minor”.
For `CC(C)(C)OC(=O)NCCCCC#Cc1ccc2c(c1)C=C([N+](=O)[O-])C(C(F)(F)F)O2` (centres unmarked) [Compound 24, tert-Butyl (6-(3-nitro-2-(trifluoromethyl)-2H-chromen-6-yl)hex-5-yn-1-yl)carbamate], the IC50 (hP2Y6R) was 0.568 ± 0.163 µM, the IC50 (hP2Y14R; CHO-hP2Y14, competitive binding, flow cytometer) was 5.6 ± 0.7 µM and the “fold selective compared to the hP2Y14R” value (hP2Y14R; hP2Y6R vs hP2Y14R) was 10 fold. For the same compound, the Ki (α2A [4]; PDSP, mean, n = 2, read-out: Ki, α2A) was 160 nM, the Ki (α2A [4]; Table S2, single determinations, read-out: Ki (nM), Alpha2A) was 148 nM and 168 nM and the Ki (α2B) was 0.46 µM. For the same compound, the Ki (D1; PDSP, mean, n = 2, read-out: Ki, D1) was 1900 nM, the Ki (D1; Table S2, single determination, read-out: Ki (nM), D1) was 1600 nM and the Ki (D5; PDSP, mean, n = 2, read-out: Ki, D5) was 2400 nM. For the same compound, the Ki (D5; Table S2, single determinations, read-out: Ki (nM), D5) was 1360 nM and 3420 nM, the Ki (H1; PDSP, mean, n = 2, read-out: Ki, H1) was 1000 nM and the Ki (H1; Table S2, single determinations, read-out: Ki (nM), H1) was 631 nM and 1430 nM. For the same compound, the Ki (5-HT1D; PDSP, mean, n = 2, read-out: Ki, 5-HT1D) was 3200 nM and the Ki (5-HT1D; Table S2, single determinations, read-out: Ki (nM), 5-HT1D) was 3260 nM and 3040 nM.
For `O=c1[nH]c(=O)n([C@@H]2O[C@H](COP(=O)(O)OP(=O)(O)O)[C@@H](O)[C@H]2O)cc1I` [MRS2693, 5-iodouridine-5′-O-diphosphate, reference compound], the “% survival” value (HeLa cells; 1 µM) was 105%, the “% survival” value (HeLa cells; 5 µM) was 106% and the “% survival” value (HeLa cells; 10 µM) was 104%. The “% survival” value ([2]; 1 µM) was 98%, the “% survival” value ([2]; 5 µM) was 100% and the “% survival” value ([2]; 10 µM) was 101%. The “effect on viability” value ([2]; astrocytoma cells, ≤10 µM, 12 h exposure) was “no significant effect” and the EC50 (P2Y6R) was 0.015 µM.
For `O=c1ccn([C@@H]2O[C@H](COP(=O)(O)OP(=O)(O)O)[C@@H](O)[C@H]2O)c(=O)[nH]1` [UDP, uridine 5′-diphosphate], the EC50 (P2Y6R) is listed as 0.013 µM.
